Data taken from patent US20070249526A1, “PROCESS FOR THE PREPARATION OF CYCLIC PEPTIDES” (priority 2003, published 2007).

Experiments:
human C5a receptor [1] = biological target: T1, human C5a receptor (Homo sapiens, UniProt P21730); settings: literature refs 6-9; cited from earlier work
T1 construct: host or cells: human cells; neutrophils, macrophages, polymorphonuclear leukocytes
T1 sequence (P21730 1-350): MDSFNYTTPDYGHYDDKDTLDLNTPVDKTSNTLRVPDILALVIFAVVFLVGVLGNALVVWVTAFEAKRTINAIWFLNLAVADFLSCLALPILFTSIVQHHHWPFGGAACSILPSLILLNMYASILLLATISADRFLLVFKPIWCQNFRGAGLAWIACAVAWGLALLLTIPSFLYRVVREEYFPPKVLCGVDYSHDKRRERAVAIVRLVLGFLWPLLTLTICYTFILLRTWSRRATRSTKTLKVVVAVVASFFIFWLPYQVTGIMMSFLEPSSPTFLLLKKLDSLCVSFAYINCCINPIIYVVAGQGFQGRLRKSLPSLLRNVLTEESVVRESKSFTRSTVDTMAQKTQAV

[2] = tested on: rat models of human disease; settings: literature refs 10-15; cited from earlier work
human C5a receptor [3] = biological target: T1, human C5a receptor; settings: literature refs 6-9; cited from earlier work; remark: listed apart in the source
physchem = assay type: physicochemical
Description: The crude product of Example 15 was purified by prep HPLC using 0.5% AcOH in water and 0.5% AcOH in 90% ACN in water as buffers. The crude product was purified in a gradient program and major fraction was collected. After lyophilization, it gave a white powder which failed the solubility test at 10 mg/ml. ^19F NMR confirmed that there were still two TFA salts in the formula (FIG. 1). This product was repurified on the prepHPLC once more, the major fraction was collected and lyophilized to give 3D53. 12 mg of this product dissolved in 1 ml water gave a clear solution.

CC(=O)N[C@@H](Cc1ccccc1)C(=O)N[C@H]1CCCNC(=O)[C@H](CCCNC(=N)N)NC(=O)C(Cc2c[nH]c3ccccc23)NC(=O)[C@@H](CC2CCCCC2)NC(=O)C2CCCN2C1=O (stereo partly drawn) [Compound 1, Ac-Phe[Orn-Pro-D-Cha-Trp-Arg]]
inhibition in vitro of C5a binding to human cells (human C5a receptor [1]): potent inhibition | inhibition in vivo in rat models of human disease [2]: potent inhibition | inhibition in vitro of C5a-mediated activation of neutrophils and macrophages, chemotaxis, and cytokine release (human C5a receptor [3]): potent inhibition | solubility (physchem): < 10000 µg/mL | amount dissolved giving a clear solution (physchem; in 1 ml water, product repurified by prepHPLC, no TFA salt by 19F NMR): ≥ 12 mg
